The values below come from EPA's ToxValDB 9.5 (doi:10.2903/j.efsa.2011.2417).

≈ marks a conversion by molar mass, not a printed value. Where only a bound is given, the exact number is not on record here.

One data set deals with Canidae. The settings on record: oral, Dog Other, hematological.
The subject of another data set is Daphnia magna. To be noted: chronic/long-term; duration: 21 days; reproduction.
The subject of the next data set is Anas platyrhynchos. The settings on record: short-term; oral; feed; mortality.
The next data set relates to Tagia sp. The settings on record: acute; mortality.
The next data set has as its system Typhlodromus pyri. To be noted: not reported; mortality.
In another data set the test system is Rattus norvegicus. The settings on record: chronic; duration: 2 years; organ weight.
The next data set relates to Apis mellifera. To be noted: acute; duration: 48 hours; oral; unspecified; mortality.
Another data set deals with Colinus virginianus. The settings on record: mortality.

In the case of `CCSC(C)CC1CC(=O)C(C(CC)=NOC/C=C/Cl)=C(O)C1` (configuration not stated) [Clethodim], the NOAEL with Canidae (chronic, duration: 1 years) was 21 mg/kg-day; in the data set on Canidae (subchronic, duration: 90 days), 21 mg/kg-day; in the data set with Rattus norvegicus, 16 mg/kg-day. For the same compound, the LC50 in the data set on Oncorhynchus mykiss (acute, duration: 96 hours, mortality) was 25 µg/mL (≈ 69.5 µM); in the data set on Anas platyrhynchos, above 851 mg/kg-day; in the data set on Tagia sp., 129 mg/kg. The NOEC came out at 3.9 mg/L with Oncorhynchus mykiss (chronic/long-term, duration: 21 days) and 49 mg/L with Daphnia magna. In the data set on Typhlodromus pyri, this compound returned an LEL of 9.6 g/ha. Besides, the LD50 was above 43 µg/piece with Apis mellifera and above 1640 mg/kg in the data set on Colinus virginianus (acute, oral). Also, the NOEL in the data set on Colinus virginianus (reproduction developmental) was 17 mg/kg-day.
